{"source": "the NIST ThermoML archive (doi:10.1016/j.jct.2013.02.023)", "settings": "relaxation calorimetry - Quantum Design PPMS; for molar entropy: 101.33 kPa", "note": "± gives the expanded uncertainty stated by the source.", "data": [{"smiles": "O=P([O-])([O-])OP(=O)([O-])[O-].O=P([O-])([O-])OP(=O)([O-])[O-].O=P([O-])([O-])OP(=O)([O-])[O-].[Fe+3].[Fe+3].[Fe+3].[Fe+3]", "note": "[iron(III) diphosphate]", "values": [{"measurement": "molar entropy", "setting": "1 K, Crystal 3", "value": "0.07578 ± 0.012", "unit": "J/K/mol"}, {"measurement": "molar entropy", "setting": "2 K, Crystal 3", "value": "0.1665 ± 0.026", "unit": "J/K/mol"}, {"measurement": "molar entropy", "setting": "3 K, Crystal 3", "value": "0.2869 ± 0.044", "unit": "J/K/mol"}, {"measurement": "molar entropy", "setting": "4 K, Crystal 3", "value": "0.4556 ± 0.07", "unit": "J/K/mol"}, {"measurement": "molar entropy", "setting": "5 K, Crystal 3", "value": "0.6947 ± 0.11", "unit": "J/K/mol"}, {"measurement": "molar entropy", "setting": "6 K, Crystal 3", "value": "1.027 ± 0.16", "unit": "J/K/mol"}, {"measurement": "molar entropy", "setting": "7 K, Crystal 3", "value": "1.472 ± 0.23", "unit": "J/K/mol"}, {"measurement": "molar entropy", "setting": "8 K, Crystal 3", "value": "2.047 ± 0.31", "unit": "J/K/mol"}, {"measurement": "molar entropy", "setting": "9 K, Crystal 3", "value": "2.754 ± 0.42", "unit": "J/K/mol"}, {"measurement": "molar entropy", "setting": "10 K, Crystal 3", "value": "3.591 ± 0.13", "unit": "J/K/mol"}, {"measurement": "molar entropy", "setting": "11 K, Crystal 3", "value": "4.553 ± 0.17", "unit": "J/K/mol"}, {"measurement": "molar entropy", "setting": "12 K, Crystal 3", "value": "5.629 ± 0.2", "unit": "J/K/mol"}, {"measurement": "molar entropy", "setting": "13 K, Crystal 3", "value": "6.809 ± 0.25", "unit": "J/K/mol"}, {"measurement": "molar entropy", "setting": "14 K, Crystal 3", "value": "8.084 ± 0.29", "unit": "J/K/mol"}, {"measurement": "molar entropy", "setting": "15 K, Crystal 3", "value": "9.437 ± 0.34", "unit": "J/K/mol"}, {"measurement": "molar entropy", "setting": "16 K, Crystal 3", "value": "10.86 ± 0.39", "unit": "J/K/mol"}, {"measurement": "molar entropy", "setting": "17 K, Crystal 3", "value": "12.36 ± 0.45", "unit": "J/K/mol"}, {"measurement": "molar entropy", "setting": "18 K, Crystal 3", "value": "13.92 ± 0.5", "unit": "J/K/mol"}, {"measurement": "molar entropy", "setting": "19 K, Crystal 3", "value": "15.55 ± 0.56", "unit": "J/K/mol"}, {"measurement": "molar entropy", "setting": "20 K, Crystal 3", "value": "17.25 ± 0.62", "unit": "J/K/mol"}, {"measurement": "molar entropy", "setting": "25 K, Crystal 3", "value": "26.52 ± 0.96", "unit": "J/K/mol"}, {"measurement": "molar entropy", "setting": "30 K, Crystal 2", "value": "36.76 ± 1.3", "unit": "J/K/mol"}, {"measurement": "molar entropy", "setting": "35 K, Crystal 2", "value": "47.46 ± 1.7", "unit": "J/K/mol"}, {"measurement": "molar entropy", "setting": "40 K, Crystal 2", "value": "59.06 ± 2.1", "unit": "J/K/mol"}, {"measurement": "molar entropy", "setting": "45 K, Crystal 2", "value": "71.73 ± 2.6", "unit": "J/K/mol"}, {"measurement": "molar entropy", "setting": "50 K, Crystal 1", "value": "84.46 ± 2.8", "unit": "J/K/mol"}, {"measurement": "molar entropy", "setting": "55 K, Crystal 1", "value": "93.95 ± 3.1", "unit": "J/K/mol"}, {"measurement": "molar entropy", "setting": "60 K, Crystal 1", "value": "103.22 ± 3.4", "unit": "J/K/mol"}, {"measurement": "molar entropy", "setting": "65 K, Crystal 1", "value": "112.55 ± 3.7", "unit": "J/K/mol"}, {"measurement": "molar entropy", "setting": "70 K, Crystal 1", "value": "121.98 ± 4", "unit": "J/K/mol"}, {"measurement": "molar entropy", "setting": "75 K, Crystal 1", "value": "131.56 ± 4.3", "unit": "J/K/mol"}, {"measurement": "molar entropy", "setting": "80 K, Crystal 1", "value": "141.27 ± 4.7", "unit": "J/K/mol"}, {"measurement": "molar entropy", "setting": "85 K, Crystal 1", "value": "151.12 ± 5", "unit": "J/K/mol"}, {"measurement": "molar entropy", "setting": "90 K, Crystal 1", "value": "161.1 ± 5.3", "unit": "J/K/mol"}, {"measurement": "molar entropy", "setting": "95 K, Crystal 1", "value": "171.2 ± 5.7", "unit": "J/K/mol"}, {"measurement": "molar entropy", "setting": "100 K, Crystal 1", "value": "181.43 ± 6", "unit": "J/K/mol"}, {"measurement": "molar entropy", "setting": "110 K, Crystal 1", "value": "202.07 ± 6.7", "unit": "J/K/mol"}, {"measurement": "molar entropy", "setting": "120 K, Crystal 1", "value": "222.81 ± 7.3", "unit": "J/K/mol"}, {"measurement": "molar entropy", "setting": "130 K, Crystal 1", "value": "243.5 ± 8", "unit": "J/K/mol"}, {"measurement": "molar entropy", "setting": "140 K, Crystal 1", "value": "264.06 ± 8.7", "unit": "J/K/mol"}, {"measurement": "molar entropy", "setting": "150 K, Crystal 1", "value": "284.46 ± 9.4", "unit": "J/K/mol"}, {"measurement": "molar entropy", "setting": "160 K, Crystal 1", "value": "304.66 ± 10", "unit": "J/K/mol"}, {"measurement": "molar entropy", "setting": "170 K, Crystal 1", "value": "324.67 ± 11", "unit": "J/K/mol"}, {"measurement": "molar entropy", "setting": "180 K, Crystal 1", "value": "344.47 ± 11", "unit": "J/K/mol"}, {"measurement": "molar entropy", "setting": "190 K, Crystal 1", "value": "364.05 ± 12", "unit": "J/K/mol"}, {"measurement": "molar entropy", "setting": "200 K, Crystal 1", "value": "383.42 ± 13", "unit": "J/K/mol"}, {"measurement": "molar entropy", "setting": "210 K, Crystal 1", "value": "402.56 ± 13", "unit": "J/K/mol"}, {"measurement": "molar entropy", "setting": "220 K, Crystal 1", "value": "421.48 ± 14", "unit": "J/K/mol"}, {"measurement": "molar entropy", "setting": "230 K, Crystal 1", "value": "440.17 ± 15", "unit": "J/K/mol"}, {"measurement": "molar entropy", "setting": "240 K, Crystal 1", "value": "458.61 ± 15", "unit": "J/K/mol"}, {"measurement": "molar entropy", "setting": "250 K, Crystal 1", "value": "476.82 ± 16", "unit": "J/K/mol"}, {"measurement": "molar entropy", "setting": "260 K, Crystal 1", "value": "494.79 ± 16", "unit": "J/K/mol"}, {"measurement": "molar entropy", "setting": "270 K, Crystal 1", "value": "512.5 ± 17", "unit": "J/K/mol"}, {"measurement": "molar entropy", "setting": "273.15 K, Crystal 1", "value": "518.03 ± 17", "unit": "J/K/mol"}, {"measurement": "molar entropy", "setting": "280 K, Crystal 1", "value": "529.97 ± 17", "unit": "J/K/mol"}, {"measurement": "molar entropy", "setting": "290 K, Crystal 1", "value": "547.19 ± 18", "unit": "J/K/mol"}, {"measurement": "molar entropy", "setting": "298.15 K, Crystal 1", "value": "561.03 ± 19", "unit": "J/K/mol"}, {"measurement": "molar entropy", "setting": "300 K, Crystal 1", "value": "564.15 ± 19", "unit": "J/K/mol"}, {"measurement": "Triple point temperature", "setting": "Crystal 2", "value": "47.6 ± 0.1", "unit": "K"}, {"measurement": "Triple point temperature", "setting": "Crystal 3", "value": "27.3 ± 0.2", "unit": "K"}]}]}
